Tests used:
[1] = system: apoE3*-Leiden mice; assay: Example 2 overview: high fat high cholesterol W-diet with 1% phytosphingosine, 4 weeks; assay type: in vivo
Experimental: The experiment as described in example 1 was repeated several times but using 1% phytosphingosine as a supplement to the W-diet. Each time, one group (control group, consisting of 6 or 12 apoE3*-Leiden mice) was fed the high fat high cholesterol W-diet. Another group (treatment group, consisting of 6 or 12 apoE3*-Leiden mice), was fed the same high fat high cholesterol W-diet diet supplemented with 1% phytosphingosine.
In all mice the following parameters were determined (after 4 hours of fasting) after a diet period of 4 weeks: plasma total cholesterol (PTC), plasma triglycerides (PTG), plasma free fatty acids (PFFA), liver total cholesterol (LTC), liver triglycerides (LTG), liver cholesteryl esters (LCE), serum amyloid A (SAA) (mg/ml), fibrinogen (in mg/ml), body weight (in g), liver weight (in g), heart weight (in g), ALAT (in U/L).

[2] = system: APOE*3Leiden mice; assay: Effect of dietary sphingolipids on plasma C and TG levels (0.1, 0.2, 0.4% in diet); assay type: in vivo; details: 0.4% sphingolipid in diet, compared with 0.2%
Description: Sphingolipids: The three sphingolipids that represent the most abundant natural complex sphingolipid classes and the three of the simplest natural sphingolipids, the sphingoid bases that can be formed by enzymatic breakdown of complex sphingolipids in the intestine were used. Sphingomyelin (mainly N-palmitoyl-sphingosine-1-phosphocholine) from egg was obtained from Larodan Fine Chemicals (Stockholm, Sweden). Yeast-derived (semi)synthetic ceramide III (N-stearoyl-phytosphingosine), cerebroside (N-stearoyl-phytosphingosine-1-glucose) and phytosphingosine (PS) were from Cosmoferm BV (Delft, the Netherlands). Sphinganine and sphingosine were from Avanti Polar Lipids (Albaster, Ala.). Animals and diets: Heterozygous female APOE*3Leiden transgenic mice (Van Vlijmen et al. 1994. J. Clin. Invest 93:1403-1410.) (6 months old) were fed a Western-type diet (Hope Farms, Woerden, the Netherlands) containing 15% cocoa butter, 0.25% cholesterol, 1% corn oil, 40.5% sucrose, 20% acid casein, 10% corn starch and 5.95% cellulose (all w/w) for 5 weeks. The mice were allowed free access to food and water. Body weight and food intake were monitored weekly. In the first experiment (FIG. 2), the mice were randomized after these 5 weeks into 7 groups (n=6), based on plasma cholesterol, triglycerides, and body weight. Subsequently, the mice were fed for three weeks the same diet without or with 0.1% (w/w) phytosphingosine (PS), sphingosine, sphinganine, cerebroside, ceramide III, or sphingomyelin. […]
Plasma parameters: Tail blood samples were collected in EDTA-coated cups, or in paraoxon-coated capillaries to prevent lipolysis as described in Zambon et al. 1993 (Zambon et al. 1993. J. Lipid Res. 34:1021-1028). Plasma lipid parameters were determined using commercial kits for total cholesterol (C) Chol R1 from Roche Diagnostics, Mannheim, Germany), non-esterified free fatty acids (FFA) (NEFA-C; Wako chemicals, Neuss, Germany), Total triglycerides (TG) (Triglyceride GPO-Trinder; Sigma, St. Louis, Mo.), β-hydroxybutyrate (β-HB; Sigma) and ALAT (Reflotron GPT; Roche). Serum amyloid A (SAA) was measured by ELISA (Biosource, Nivelles, Belgium) and fibrinogen by sandwich ELISA, as described in Koopman et al., 2005 (Koopman et al. 2005. Fibrinol Proteol 11:19). […] Hepatic VLDL-TG production: The rate of hepatic VLDL-TG production, de novo apoB secretion, and VLDL composition were determined in overnight-fasted mice. […] After 30 min, the animals received a Triton WR1339 injection (Tyloxapol, Sigma; 500 mg/kg body weight in 100 μl saline) to prevent systemic lipolysis of newly-secreted hepatic VLDL-TG (Aalto-Setala et al. 1992. J. Clin. Invest 90:1889-1900.27) Blood samples were drawn at 0, 15, 30, 60, and 90 min after Triton WR1339 injection and plasma TG concentrations were determined. […]

CCCCCCCCCCCCCC[C@@H](O)[C@@H](O)[C@@H](N)CO [PS, phytosphingosine]
Plasma lipid levels (total cholesterol, triglycerides and free fatty acids) vs control ([1]; 1% PS in W-diet): significantly decreased | Liver lipid levels vs control ([1]; 1% PS in diet W): significantly decreased | ALAT vs control ([1]; 1% PS in the diet): significantly lowered | Plasma level of fibrinogen vs control ([1]; 1% phytosphingosine in W-diet): increased | Levels of serum amyloid A (SAA) vs control ([1]; 1% phytosphingosine in W-diet, 4 hours fasting): significantly lower | Plasma C [2]: decreased even more

Source: US7906488B2, “Sphingolipids in treatment and prevention of steatosis and of steatosis or of hepatotoxicity and its sequelae” (Nederlandse Organisatie Voor …, priority 2004, dated 2011)
